# Results reported in patent US11000033B2, “Ketone or oxime compound, and herbicide” (NISSAN CHEMICAL CORPORATION, priority 2014, dated 2021).
# Tests used:
# Type in all cases: in vivo
# [1] = system: Echinochloa crus-galli var. crus-galli; assay: Test Example 3: herbicidal effect by foliage application, Wagner pot (symbol H); details: application herbicide amount 320 g/ha
# Procedure, shortened: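 Alluvial soil was flooded to a depth of 0.1–0.5 cm, seeded with the weeds and rice, and kept in a greenhouse at 25–30 °C. After 14 days of growth, the foliage received a small-sprayer application of emulsion diluted to the intended rate; injury was rated at 3 weeks.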
# Veronica persica = assay: Test Example 5: herbicidal effect by foliage application, plastic box (symbol R); details: 320 g/ha, 3 weeks after application
# Procedure, shortened: (§1)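 Post-emergence spray; diluvial soil (sterilized), ~1.5 cm seed cover; greenhouse 25–30° C; 14-day-old plants; water-diluted emulsion at predetermined dose; visual score at 3 wk post-treatment.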
# rapeseed = assay: Test Example 5: effect on crop by foliage application, plastic box (symbol g); details: 320 g/ha, 3 weeks after application
# Procedure, shortened: (§2)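 Crop seed is sown alongside grass and broadleaf weed species in spots in sterilized diluvial soil, then covered to a depth of about 1.5 cm. Plants grow in a greenhouse kept at 25° C. to 30° C.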
# Scirpus juncoides = assay: Test Example 2: herbicidal activity, application during weed generation in submerged conditions (symbol B); details: Table 23; application herbicide amount 320 g/ha; grade 0-5 by criteria of Test Example 1
# Procedure, shortened: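 Weeds emerging under flooded conditions were treated with compound formulated as an emulsion and diluted with water to the intended herbicide amount, poured onto the surface of 4 cm standing water. Seeds had been co-sown in alluvial soil; plants grew at 25° C. to 30° C. and were assessed after 3 weeks.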
# [2] = system: directly sowed rice plant; assay: Test Example 3: effect on crop by foliage application, Wagner pot (symbol b); details: application herbicide amount 320 g/ha
# Procedure, shortened: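 Wagner pot (1/10000 are), alluvial soil, submerged 0.1–0.5 cm; sown E. crus-galli var. crus-galli, L. chinensis, C. difformis, rice; greenhouse 25–30 °C.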
# Avena fatua = assay: Test Example 5: herbicidal effect by foliage application, plastic box (symbol I); details: 320 g/ha, 3 weeks after application
# Procedure, shortened: as §1
# beet = assay: Test Example 4: effect on crop by soil treatment (symbol f); details: for f: beet, effect on crop grade: application herbicide amount 320 g/ha; for f: beet, effect grade on crop: 320 g/ha
# Procedure, shortened: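 Crop seed is sown in spots together with several weed species in a box of sterilized diluvial soil. It is covered by about 1.5 cm of soil and kept in a greenhouse held between 25° C. and 30° C.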
# Monochoria vaginalis = assay: Test Example 1: herbicidal activity, application before weed generation in submerged conditions (symbol C); details: application herbicide amount 320 g/ha
# Procedure, shortened: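 Steps: alluvial soil flooded to 4 cm; weed seeds sown together; rice seedlings (2.5 leaf) transplanted; diluted emulsion applied to water surface the same day as sowing; plants grown at 25–30 °C in greenhouse; herbicidal effect rated on a 0–5 scale at 3 weeks.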
# soybean = assay: Test Example 5: effect on crop by foliage application, plastic box (symbol d); details: 320 g/ha, 3 weeks after application
# Procedure, shortened: as §2
Compound,"herbicidal effect on H (Echinochloa crus-galli var. crus-galli), grade 0-5 [1]","R: Veronica persica, herbicidal effect grade (Veronica persica)","g: rapeseed, effect on crop grade (rapeseed)","Herbicidal effect grade, B: Scirpus juncoides (Scirpus juncoides)","effect on crop b (directly sowed rice plant), grade 0-5 [2]","I: Avena fatua, herbicidal effect grade (Avena fatua)","f: beet, effect on crop grade (beet)","Herbicidal effect grade, C: Monochoria vaginalis (Monochoria vaginalis)","d: soybean, effect on crop grade (soybean)","f: beet, effect grade on crop (beet)"
CON=C(C)CC1CC(O)=C(c2c(C)cc(-c3cccc(Cl)c3)cc2C)C1=O (mixture of isomers) [6-034],5 (Herbicidal ratio of 90% or more (almost completely withered)),3 (Herbicidal ratio of 40% or higher and lower than 70%),4 (Herbicidal ratio of 70% or higher and lower than 90%),5 (Herbicidal ratio of 90% or more (almost completely withered)),5 (Herbicidal ratio of 90% or more (almost completely withered)),5 (Herbicidal ratio of 90% or more (almost completely withered)),0 (Herbicidal ratio of 5% or lower (almost no effect)),4 (Herbicidal ratio of 70% or higher and lower than 90%),0 (Herbicidal ratio of 5% or lower (almost no effect)),–
CCOC(=O)C(CC)(C(C)=O)C1CC(O)=C(c2c(C)cc(C)cc2C)C1=O (stereo not drawn) [2-012],0 (Herbicidal ratio of 5% or lower (almost no effect)),0 (Herbicidal ratio of 5% or lower (almost no effect)),0 (Herbicidal ratio of 5% or lower (almost no effect)),0 (Herbicidal ratio of 5% or lower (almost no effect)),0 (Herbicidal ratio of 5% or lower (almost no effect)),0 (Herbicidal ratio of 5% or lower (almost no effect)),0 (Herbicidal ratio of 5% or lower (almost no effect)),0 (Herbicidal ratio of 5% or lower (almost no effect)),0 (Herbicidal ratio of 5% or lower (almost no effect)),–
CON=C(C)CC1CC(OS(=O)(=O)c2ccc(C)cc2)=C(c2c(C)cc(C)cc2C)C1=O (stereo not drawn) [1-161],4 (Herbicidal ratio of 70% or higher and lower than 90%),0 (Herbicidal ratio of 5% or lower (almost no effect)),3 (Herbicidal ratio of 40% or higher and lower than 70%),4 (Herbicidal ratio of 70% or higher and lower than 90%),5 (Herbicidal ratio of 90% or more (almost completely withered)),4 (Herbicidal ratio of 70% or higher and lower than 90%),–,1 (Herbicidal ratio of 5% or higher and lower than 20%),0 (Herbicidal ratio of 5% or lower (almost no effect)),0 (Herbicidal ratio of 5% or lower (almost no effect))
COC(=O)C(C(=O)C1CC1)C1CC(O)=C(c2c(C)cc(C)cc2C)C1=O (stereo not drawn) [2-014],5 (Herbicidal ratio of 90% or more (almost completely withered)),3 (Herbicidal ratio of 40% or higher and lower than 70%),4 (Herbicidal ratio of 70% or higher and lower than 90%),3 (Herbicidal ratio of 40% or higher and lower than 70%),5 (Herbicidal ratio of 90% or more (almost completely withered)),4 (Herbicidal ratio of 70% or higher and lower than 90%),0 (Herbicidal ratio of 5% or lower (almost no effect)),1 (Herbicidal ratio of 5% or higher and lower than 20%),0 (Herbicidal ratio of 5% or lower (almost no effect)),–
CCCC(=O)CC1CC(O)=C(c2c(C)cc(C)cc2C)C1=O (stereo not drawn) [2-021],5 (Herbicidal ratio of 90% or more (almost completely withered)),0 (Herbicidal ratio of 5% or lower (almost no effect)),3 (Herbicidal ratio of 40% or higher and lower than 70%),2 (Herbicidal ratio of 20% or higher and lower than 40%),5 (Herbicidal ratio of 90% or more (almost completely withered)),3 (Herbicidal ratio of 40% or higher and lower than 70%),0 (Herbicidal ratio of 5% or lower (almost no effect)),2 (Herbicidal ratio of 20% or higher and lower than 40%),0 (Herbicidal ratio of 5% or lower (almost no effect)),–
CON=C(C)CC1CC(OC(=O)Cc2ccc(OC)cc2)=C(c2c(C)cc(C)cc2C)C1=O (stereo not drawn) [1-156],5 (Herbicidal ratio of 90% or more (almost completely withered)),4 (Herbicidal ratio of 70% or higher and lower than 90%),4 (Herbicidal ratio of 70% or higher and lower than 90%),5 (Herbicidal ratio of 90% or more (almost completely withered)),5 (Herbicidal ratio of 90% or more (almost completely withered)),5 (Herbicidal ratio of 90% or more (almost completely withered)),–,1 (Herbicidal ratio of 5% or higher and lower than 20%),3 (Herbicidal ratio of 40% or higher and lower than 70%),1 (Herbicidal ratio of 5% or higher and lower than 20%)
CON=C(C)CC1CC(O)=C(c2c(C)cc(Br)cc2C)C1=O (stereo not drawn) [6-003],5 (Herbicidal ratio of 90% or more (almost completely withered)),0 (Herbicidal ratio of 5% or lower (almost no effect)),4 (Herbicidal ratio of 70% or higher and lower than 90%),1 (Herbicidal ratio of 5% or higher and lower than 20%),5 (Herbicidal ratio of 90% or more (almost completely withered)),5 (Herbicidal ratio of 90% or more (almost completely withered)),0 (Herbicidal ratio of 5% or lower (almost no effect)),1 (Herbicidal ratio of 5% or higher and lower than 20%),3 (Herbicidal ratio of 40% or higher and lower than 70%),–
COC(=O)C(C(C)=O)C1CC(O)=C(c2c(C)cc(C)cc2C)C1=O (stereo not drawn) [2-003],5 (Herbicidal ratio of 90% or more (almost completely withered)),3 (Herbicidal ratio of 40% or higher and lower than 70%),3 (Herbicidal ratio of 40% or higher and lower than 70%),0 (Herbicidal ratio of 5% or lower (almost no effect)),4 (Herbicidal ratio of 70% or higher and lower than 90%),5 (Herbicidal ratio of 90% or more (almost completely withered)),–,0 (Herbicidal ratio of 5% or lower (almost no effect)),0 (Herbicidal ratio of 5% or lower (almost no effect)),0 (Herbicidal ratio of 5% or lower (almost no effect))
